Assay results published in patent US20250059231A1, “Protease inhibitors” (priority 2021, published 2025).
Structures can show the parent of a compound that is named as a salt. Where a SMILES comes first, the peptide text is derived from it. [ ]: non-standard residue; d: D form. The star is where a group is joined. Phe(4-guanidino) = N=C(N)Nc1ccc(C[C@H](N)C(=O)O)cc1; Benzoyl(4-Ph) = O=C(c1ccc(-c2ccccc2)cc1)*; Palmitoyl = CCCCCCCCCCCCCCCC(=O)*; NHhexadecyl = CCCCCCCCCCCCCCCCN*; 3Pal = N[C@@H](Cc1cccnc1)C(=O)O; 4Pal = N[C@@H](Cc1ccncc1)C(=O)O; X2 = O=C(c1ccc(-c2cccs2)s1)*; β3hK = NCCCC[C@H](N)CC(=O)O; X1 = FC(F)(F)c1ccc(CN*)cc1; Pip = O=C(O)[C@@H]1CCCCN1; Octanoyl = CCCCCCCC(=O)*; NHOctyl = CCCCCCCCN*; Propionyl = CCC(=O)*; X3 = COc1cccc(CN*)c1; NHPr = CCCN*

target: T1, DENV protease (Dengue virus type 2, UniProt P29990); experiment: biochemical; conditions: at 50 μM; read-out: inhibition of DENV
T1 construct: The virus-encoded dengue protease comprises the amino-terminal 180 amino acids of NS3 (NS3pro) of the polyprotein
Protocol: Dilutions were made starting from 10 mM stock solutions in DMSO and final concentrations were measured in triplicates. The inhibitors were preincubated for 15 min with DENV protease (100 nM) in the assay buffer (50 mM Tris-HCl pH 9.0, ethylene glycol (10% v/v), and 0.0016% Brij 58). The enzymatic reaction was initiated by the addition of the FRET substrate (final concentration 50 μM) to obtain a final assay volume of 100 μL per well. The enzymatic activity was monitored for 15 min and determined as a slope of relative fluorescence units per second (RFU/s) for each concentration. The mean of the triplicates were plotted against the corresponding concentration in CDDVault to determine the IC50-values. Analogous procedures were used to determine the inhibitory potency on WNV (Kühl et al., J. Med. Chem. 2020, 63 (15): 8179-8197) and ZIKA protease (Nitsche et al., ACS Med. Chem. Lett. 2019 Feb. 14; 10 (2): 168-174). For selectivity screening of active candidates, similar biochemical assays with human serine proteases trypsin (Weigel et al., J. Med. Chem. 2015, 58 (19), 7719-7733.) and/or thrombin (Nitsche et al., J. Med. Chem. 2013, 56 (21), 8389-8403) were used.

T1 sequence (P29990 1398-1437): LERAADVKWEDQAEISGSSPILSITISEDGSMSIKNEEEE
T1 sequence (P29990 1476-1653): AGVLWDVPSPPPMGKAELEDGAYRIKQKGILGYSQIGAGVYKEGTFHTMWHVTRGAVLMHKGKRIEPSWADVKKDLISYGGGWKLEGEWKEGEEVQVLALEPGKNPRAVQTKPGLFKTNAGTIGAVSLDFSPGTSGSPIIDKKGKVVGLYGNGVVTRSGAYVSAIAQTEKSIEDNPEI

SMILES | inhibition at 50 µM
CCCCCCCCCCCCCCCC(=O)N[C@@H](CCCCN)C(=O)N1CCC[C@H]1C(=O)N[C@@H](C)C(=O)N[C@@H](CCCCN)c1nnc(C)o1 [compound 1] | ≥ 25%
CCCCCCCCCCCCCCCC(=O)N[C@@H](CCCCN)C(=O)N[C@@H](C)C(=O)N[C@@H](C)C(=O)N[C@H](CCCCN)c1nnc(C)o1 [compound 2] | ≥ 25%
CCCCCCCCCCCCCCCC(=O)N[C@@H](CCCCN)C(=O)N[C@@H](C)C(=O)N[C@@H](C)C(=O)N[C@H](CCc1ccccc1)c1nnc(C)o1 [compound 3] | ≥ 25%
CCCCCCCCCCCCCCCC(=O)N[C@@H](CCCCN)C(=O)N1CCC[C@H]1C(=O)N[C@@H](C)C(=O)N[C@@H](CCc1ccccc1)c1nnc(C)o1 [compound 4] | ≥ 25%
CCCCCCCCCCCCCCCC(=O)N[C@@H](C)C(=O)N1C[C@@H](Oc2ccncc2)C[C@H]1C(=O)N[C@@H](C)C(=O)N[C@@H](CCCCN)C(N)=O [compound 7] | ≥ 25%
CCCCCCCCCCCCCCCC(=O)N[C@@H](CCCCN)C(=O)N1CCC[C@H]1C(=O)N[C@@H](Cc1cnc[nH]1)C(=O)N[C@@H](CCCCN)C(N)=O [compound 12] (Palmitoyl-KPHK-NH2) | ≥ 25%
CCCCCCCCCCCCCCCC(=O)N[C@@H](CCCCN)C(=O)N1CCCC[C@H]1C(=O)N[C@@H](Cc1cnc[nH]1)C(=O)N[C@@H](CCCCN)C(N)=O [compound 14] (Palmitoyl-K[Pip]HK-NH2) | ≥ 25%
CCCCCCCCCCCCCCCC(=O)N[C@@H](CCCCN)C(=O)N1CCCC[C@H]1C(=O)N[C@@H](C)C(=O)N[C@@H](CCCCN)C(N)=O [compound 15] (Palmitoyl-K[Pip]AK-NH2) | ≥ 25%
CCCCCCCCNC(=O)[C@H](CCCCN)NC(=O)[C@H](CCCCN)NC(=O)[C@H](CCCCN)NC(=O)[C@H](CC(C)C)NC(=O)CCCCCCC [compound 19] (Octanoyl-LKKK-NHOctyl) | ≥ 25%
CCCNC(=O)[C@H](CCCCN)NC(=O)[C@H](CCCCN)NC(=O)[C@H](CCCCN)NC(=O)[C@H](C)NC(=O)CC [compound 21] (Propionyl-AKKK-NHPr) | ≥ 25%
CCCNC(=O)[C@H](CCCCN)NC(=O)[C@H](CCCCN)NC(=O)[C@H](CCCCN)NC(=O)[C@H](Cc1ccccc1)NC(=O)CC [compound 23] (Propionyl-FKKK-NHPr) | ≥ 25%
CCCCCCCCNC(=O)[C@H](CCCCN)NC(=O)[C@H](C)NC(=O)[C@H](CCCCN)NC(=O)[C@H](CC(C)C)NC(=O)CCCCCCC [compound 25] (Octanoyl-LKAK-NHOctyl) | ≥ 25%
CCCCCCCCNC(=O)[C@H](CCCCN)NC(=O)[C@H](CCCNC(=N)N)NC(=O)[C@H](C)NC(=O)[C@H](CCCNC(=N)N)NC(=O)CCCCCCC [compound 29] (Octanoyl-RARK-NHOctyl) | ≥ 25%
CCCCCCCCCCCCCCCCNC(=O)[C@H](CCCCN)NC(=O)[C@H](CCC(N)=O)NC(=O)[C@H](CCCNC(=N)N)NC(=O)[C@H](C)N [compound 32] (H-ARQK-NHhexadecyl) | ≥ 25%
COc1cccc(CNC(=O)[C@H](CCCCN)NC(=O)[C@H](CCC(N)=O)NC(=O)[C@H](CCCNC(=N)N)NC(=O)[C@H](C)NC(=O)c2ccc(-c3cccs3)s2)c1 [compound 36] (X2-ARQK-X3) | ≥ 25%
C[C@H](NC(=O)c1ccc(-c2ccccc2)cc1)C(=O)N[C@@H](CCCNC(=N)N)C(=O)N[C@@H](CCC(N)=O)C(=O)N[C@@H](CCCCN)C(N)=O [compound 37] ({Benzoyl(4-Ph)}-ARQK-NH2) | ≥ 25%
C[C@H](NC(=O)c1ccc(-c2ccccc2)cc1)C(=O)N[C@@H](CCCNC(=N)N)C(=O)N[C@@H](CCC(N)=O)C(=O)N[C@@H](CCCCN)C(=O)NCc1ccc(C(F)(F)F)cc1 [compound 38] ({Benzoyl(4-Ph)}-ARQK-X1) | ≥ 25%
CCCCCCCCCCCCCCCC(=O)N[C@@H](CCCNC(=N)N)C(=O)N[C@@H](CCC(N)=O)C(=O)N[C@@H](CCCCN)C(N)=O [compound 40] (Palmitoyl-Arg-Gln-Lys-NH2) | ≥ 25%
CCCCCCCCCCCCCCCC(=O)N[C@@H](CCCNC(=N)N)C(=O)N[C@@H](CCC(N)=O)C(=O)N[C@@H](CCCCN)C(=O)c1ccccc1 [compound 42] | ≥ 25%
CCCCCCCCCCCCCCCC(=O)N[C@@H](CCCNC(=N)N)C(=O)N[C@@H](CCC(N)=O)C(=O)N[C@@H](Cc1ccccc1)C(=O)O [compound 45] (Palmitoyl-Arg-Gln-Phe-OH) | ≥ 25%

SMILES | inhibition at 50 µM
CCCCCCCCCCCCCCCC(=O)N[C@@H](Cc1c[nH]cn1)C(=O)N[C@@H](CCC(N)=O)C(=O)N[C@@H](Cc1ccccc1)C(N)=O [compound 52] (Palmitoyl-His-Gln-Phe-NH2) | ≥ 25%
CCCCCCCCCCCCCCCC(=O)N[C@@H](CCCc1c[nH]c(N)n1)C(=O)N[C@@H](CCC(N)=O)C(=O)N[C@@H](Cc1ccccc1)C(N)=O [compound 56] | ≥ 25%
CCCCCCCCCCCCCCCC(=O)N[C@@H](CCc1ccncc1)C(=O)N[C@@H](CCC(N)=O)C(=O)N[C@@H](Cc1ccccc1)C(N)=O [compound 57] | ≥ 25%
CCCCCCCCCCCCCCCC(=O)N[C@@H](CCc1c[nH]cn1)C(=O)N[C@@H](CCC(N)=O)C(=O)N[C@@H](Cc1ccccc1)C(N)=O [compound 59] | ≥ 25%
CCCCCCCCCCCCCCCC(=O)N[C@@H](CCCNC(=N)N)C(=O)N[C@@H](CCC(N)=O)C(=O)N[C@@H](Cc1ccccc1)B(O)O [compound 60] | ≥ 25%
CC(=O)N[C@@H](C)C(=O)N[C@@H](CCCNC(=N)N)C(=O)N[C@@H](CCC(N)=O)C(=O)N[C@@H](Cc1ccccc1)B(O)O [compound 61] | ≥ 25%
CCCCCCCCCCCCCCCC(=O)N[C@@H](Cc1c[nH]c(N)n1)C(=O)N[C@@H](CCC(N)=O)C(=O)N[C@@H](Cc1ccccc1)C(N)=O [compound 62] | ≥ 25%
CCCCCCCCCCCCCCCC(=O)N[C@@H](Cc1ccncc1)C(=O)N[C@@H](CCC(N)=O)C(=O)N[C@@H](Cc1ccccc1)C(N)=O [compound 63] (Palmitoyl-[4Pal]-Gln-Phe-NH2) | ≥ 25%
CCCCCCCCCCCCCCCC(=O)N[C@@H](Cc1cccnc1)C(=O)N[C@@H](CCC(N)=O)C(=O)N[C@@H](Cc1ccccc1)C(N)=O [compound 64] (Palmitoyl-[3Pal]-Gln-Phe-NH2) | ≥ 25%
CCCCCCCCCCCCCCCC(=O)N[C@@H](CCCNc1ncc[nH]1)C(=O)N[C@@H](CCC(N)=O)C(=O)N[C@@H](Cc1ccccc1)C(N)=O [compound 65] | ≥ 25%
CCCCCCCCCCCCCCCC(=O)N[C@@H](CCNc1ncc[nH]1)C(=O)N[C@@H](CCC(N)=O)C(=O)N[C@@H](Cc1ccccc1)C(N)=O [compound 66] | ≥ 25%
CCCCCCCCCCCCCCCC(=O)N[C@@H](Cc1cccc(NC(=N)N)c1)C(=O)N[C@@H](CCC(N)=O)C(=O)N[C@@H](Cc1ccccc1)C(N)=O [compound 67] | ≥ 25%
CCCCCCCCCCCCCCCC(=O)N[C@@H](Cc1ccc(NC(=N)N)cc1)C(=O)N[C@@H](CCC(N)=O)C(=O)N[C@@H](Cc1ccccc1)C(N)=O [compound 68] (Palmitoyl-[Phe(4-guanidino)]-Gln-Phe-NH2) | ≥ 25%
CCCCCCCCCCCCCCCC(=O)N[C@@H](C)CC(=O)N[C@@H](CCCNC(=N)N)C(=O)N[C@@H](CCC(N)=O)CC(=O)N[C@@H](CCCCN)C(N)=O [compound 72] | ≥ 25%
CCCCCCCCCCCCCCCC(=O)N[C@@H](CCCCN)CC(=O)N[C@@H](C)C(=O)N[C@@H](C)C(=O)N[C@@H](CCCCN)C(N)=O [compound 82] (Palmitoyl-[β3hK]AAK-NH2) | ≥ 25%
CCCCCCCCCCCCCCCCNC(=O)[C@H](CCCCN)NC(=O)C[C@H](C)NC(=O)[C@H](C)NC(=O)C[C@@H](N)CCCCN [compound 83] | ≥ 25%
C[C@H](NC(=O)[C@H](C)NC(=O)[C@H](CCCCN)NC(=O)c1ccc(-c2ccccc2)cc1)C(=O)N[C@@H](CCCCN)C(=O)NCc1ccc(C(F)(F)F)cc1 [compound 89] ({Benzoyl(4-Ph)}-KAAK-X1) | ≥ 25%
CCCCCCCCCCCCCCCC(=O)N[C@@H](CCCCN)CC(=O)N[C@@H](C)C(=O)N[C@@H](C)CC(=O)N[C@H](CCc1ccccc1)C(N)=O [compound 91] | ≥ 25%
CCCCCCCCCCCCCCCC(=O)N[C@@H](CCCCN)C(=O)N[C@@H](C)C(=O)N[C@@H](C)C(=O)N[C@H](Cc1c[nH]c2ccccc12)C(N)=O [compound 93] (Palmitoyl-KAA[dW]-NH2) | ≥ 25%
CCCCCCCCCCCCCCCC(=O)N[C@@H](CCCCN)C(=O)N[C@@H](C)C(=O)N[C@@H](CCCCN)C(N)=O [compound 97] (Palmitoyl-Lys-Ala-Lys-NH2) | ≥ 25%

same assay, conditions: read-out: inhibition of DENV

SMILES | inhibition at 50 µM
CCCCCCCCCCCCCCCC(=O)N[C@@H](CCc1c[nH]c(N)n1)C(=O)N[C@@H](CCC(N)=O)C(=O)N[C@@H](Cc1ccccc1)C(N)=O [compound 55, (S)—N1—((S)-1-amino-1-oxo-3-phenylpropan-2-yl)-2-((S)-4-(2-amino-1H-imidazol-4-yl)-2-palmitamidobutanamido)pentanediamide TFA salt] | ≥ 25%
C[C@H](NC(=O)[C@H](CCCCN)NC(=O)c1ccc(-c2ccccc2)cc1)C(=O)N[C@@H](CCCCN)CC(=O)NCc1ccc(C(F)(F)F)cc1 [compound 78] | ≥ 25%
